{
  "source": "patent US7763615B2",
  "about": "“Ecteinascidin analogs for use as antitumour agents” (priority 2001, dated 2010)",
  "key": {"[1]": {"system": "H9c2 (2-1), normal rat cardiac muscle cells", "details": "24 h", "procedure": "In order to assess the cytotoxicity of the drugs to normal cells, we used 96 well plates plated at a density of 5000 cells per well (except for the FDC-P1 which were plated at 12,000 cells per well) with normal cell lines (ATCC, Table 1) maintained as per the directions of the ATCC: AML-12, normal mouse liver cells; NRK-52E, normal rat kidney cells; L8, normal rat skeletal muscle cells; FDC-P1, normal mouse myelogeous stem cells; and H9c2 (2-1), normal rat cardiac muscle cells. The cells in each plate were permitted to settle overnight before adding the test drug.\nTo each well (100 μl medium) 10 μl of drug in media was added at varying concentrations (1×10-10-0.01 mg/ml final concentration) and further incubated overnight at 37° C. with 5% CO2. After 24 h the following assays were performed. All experiments were repeated at least 3 times and were assayed in duplicate.\nMTS assay (CellTiter 96 aqueous) was performed according to the manufacturer's (Promega) directions (for all cell types). Cell viability (mitochondrial activity) is determined via enzymatic conversion of the formazan substrate."}, "SK-OV3": {"system": "SK-OV3", "test": "Inhibition of cells growth by colorimetric assay (SRB), SK-OV3", "assay_type": "cell-based", "summary_of_the_method": "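SRB colorimetric growth assay: 5×10^3 cells/well, 18 h attachment, 48 h continuous compound exposure at 10–10^−8 μg/ml in DMSO/EtOH/PBS. TCA fixation, SRB stain, OD 490 nm; triplicate wells, GI, TGI and LC derived.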"}},
  "data": [
    {"smiles": "COc1c(C)cc2c(c1O)[C@@H]1C3[C@@H]4SC[C@]5(NCCc6c5[nH]c5c(C)cccc65)C(=O)COC[C@@H](c5c6c(c(C)c(OC(C)=O)c54)OCO6)N3[C@@H](O)[C@H](C2)N1C", "note": "(stereo partly shown) [Compound 36]", "values": [
      {"measurement": "Heart", "setting": "[1]", "result": "8.86E−07"},
      {"measurement": "GI50", "setting": "SK-OV3; Homo sapiens, SK-OV-3, 48 h, SK-OV3, 48 hours exposure, SRB", "result": 0.0507, "unit": "µM"},
      {"measurement": "CC50", "setting": "SK-OV3; Homo sapiens, SK-OV-3, 48 h, read-out: LC50, SK-OV3, 48 hours exposure, SRB", "result": 13, "unit": "µM"},
      {"measurement": "TGI", "setting": "SK-OV3; SK-OV3, 48 hours exposure, SRB", "result": "2.05E−07", "unit": "Molar"}
    ]}
  ]
}
